Drawing on the RepoRT retention time repository (doi:10.1021/acs.analchem.2c02893), this text covers LC retention time for 74 molecules.

The nature of the series: RP, Thermo Scientific Acclaim RSLC 120 C18, 100 × 2.1 mm, 2.2 µm, 30 °C, 0.2 mL/min, estimated dead time 1.1 min; A: 90% water + 10% methanol + 0.01% formic acid + 5 mM ammonium formate, pH 3.61; B: methanol + 0.01% formic acid + 5 mM ammonium formate, pH 3.61; gradient (min/%B) 0/1 1/1 2/39 13/99.9 15/99.9 15.1/1 20.1/1. Particulars: stereoisomer not certain.

Each structure is given as a SMILES string.

On to `CCN(CC)CCOC(=O)C(O)(c1ccccc1)c1ccccc1` [Benactyzine], for which the LC retention time is 6.08 min.

On to `COC(=O)C(C)N(C(=O)Cc1ccccc1)c1c(C)cccc1C` (centres undefined) [Benalaxyl], for which the LC retention time was 10.9 min.

As to `O=C(O)Cn1c(=O)sc2cccc(Cl)c21` [Benazolin], the LC retention time is 5.58 min.

`CNC(=O)Oc1cccc2c1OC(C)(C)O2` [Bendiocarb]: the LC retention time is 7.02 min.

As for `NS(=O)(=O)c1cc2c(cc1C(F)(F)F)NC(Cc1ccccc1)NS2(=O)=O` (centres undefined) [Bendroflumethiazide], the LC retention time is 6.82 min.

As for `CCOC(=O)CCN(SN(C)C(=O)Oc1cccc2c1OC(C)(C)C2)C(C)C` [Benfuracarb], the LC retention time is 11.9 min.

As to `O=C(Nc1ccccc1)c1ccccc1I` [Benodanil], the LC retention time is 8.02 min.

Turning to `CCCCNC(=O)n1c(NC(=O)OC)nc2ccccc21` [Benomyl (decomposed to Carbendazim)], the LC retention time is 5.46 min.

On to `CC(=O)Nc1ccc(OC(=O)c2ccccc2OC(C)=O)cc1` [Benorilate], for which the LC retention time is 7.41 min.

On to `CC1COc2ccccc2N1C(=O)C(Cl)Cl` (centres undefined) [Benoxacor], for which the LC retention time was 8.87 min.

As for `O=C(CCCN1CCC(n2c(=O)[nH]c3ccccc32)CC1)c1ccc(F)cc1` [Benperidol], the LC retention time was 5.96 min.

In the case of `CC(COc1ccccc1Cc1ccccc1)N1CCCCC1` (centres undefined) [Benproperine], the LC retention time was 8.32 min.

Turning to `NC(CO)C(=O)NNCc1ccc(O)c(O)c1O` (centres undefined) [Benserazide], the LC retention time is 1.38 min.

In the case of `COC(=O)c1ccccc1CS(=O)(=O)NC(=O)Nc1nc(OC)cc(OC)n1` [Bensulfuron-methyl], the LC retention time was 8.77 min.

As for `CN(C)C(CSS(=O)(=O)c1ccccc1)CSS(=O)(=O)c1ccccc1` [Bensultap], the LC retention time was 9.6 min.

Regarding `O=C1CN=C(c2ccccc2)c2c(sc3c2CCCC3)N1` [Bentazepam], the LC retention time is 9.49 min.

Turning to `CC(C)N1C(=O)c2ccccc2NS1(=O)=O` [Bentazone], the LC retention time was 5.22 min.

Take `CC(C)OC(=O)NC(C(=O)NC(C)c1nc2ccc(F)cc2s1)C(C)C` (centres undefined) [Benthiavalicarb-isopropyl]: the LC retention time was 9.48 min.

Take `COc1ccc(CNC(=O)c2cc([N+](=O)[O-])ccc2NC(C)CO)cc1OC` (centres undefined) [Benzamidenafil]: the LC retention time is 7.8 min.

With `N=C(N)c1ccccc1` [Benzamidine], the LC retention time is 2.63 min.

With `CN1C2CCC1CC(OC(c1ccccc1)c1ccccc1)C2` (centres undefined) [Benzatropine], the LC retention time was 7.97 min.

In the case of `CC(C)(C)CC(C)(C)c1ccc(OCCOCC[N+](C)(C)Cc2ccccc2)cc1` [Benzethonium], the LC retention time was 11.6 min.

Turning to `CCOC(=O)c1ccc(N)cc1` [Benzocaine], the LC retention time is 6.27 min.

On to `CNCC12CCC(c3ccccc31)c1ccccc12` [Benzoctamine], for which the LC retention time was 6.52 min.

For the molecule `CCCCCCCCCCCC[N+](C)(C)Cc1ccccc1` [Benzododecinium (Benzyl-dimethyl-dodecylammonium)], the LC retention time was 11.2 min.

As for `CC(N)Cc1ccc2ccoc2c1` (centres undefined) [Benzofuran-6-ylpropan-2-amine<U+00A0>(6-APB)], the LC retention time was 4.81 min.

As for `Nc1ccc([N+](=O)[O-])cc1C(=O)c1ccccc1` [Benzophenone -2-Amino-5-nitro], the LC retention time is 8.99 min.

As for `COc1cc(O)c(C(=O)c2ccccc2)cc1S(=O)(=O)O` [Benzophenone-4], the LC retention time is 6.19 min.

Consider `Nc1ccc(Cl)cc1C(=O)c1ccccc1` [Benzophenone- 2-Amino-5-chloro], for which the LC retention time was 10.5 min.

On to `O=C(c1ccc(Cl)cc1)c1ccc(Cl)cc1` [Benzophenone-p.p-Dichloro], for which the LC retention time is 11.9 min.

Take `c1ccc2scnc2c1` [Benzothiazole (BTH)]: the LC retention time was 6.88 min.

Consider `O=c1[nH]c2ccccc2s1` [Benzothiazole -2-OH], for which the LC retention time was 6.53 min.

`CSc1nc2ccccc2s1` [Benzothiazole- 2-Me-S]: the LC retention time was 9.79 min.

For `S=c1[nH]c2ccccc2s1` [Benzothiazole-Mercapto], the LC retention time is 6.89 min.

With `Cn1nnc2ccccc21` [Benzotriazole -1-Methyl], the LC retention time was 5.11 min.

Take `Cc1cccc2n[nH]nc12` [Benzotriazole -4-Me]: the LC retention time was 5.83 min.

Turning to `On1nnc2ccccc21` [Benzotriazole-1-Hydroxy], the LC retention time is 3.88 min.

Turning to `Cc1cc2n[nH]nc2cc1C` [Benzotriazole-5 6-di-Me], the LC retention time was 6.76 min.

With `O=C(O)C1=CC=C2N=NN=C2C1` [Benzotriazole-5-carboxylic acid], the LC retention time is 3.81 min.

With `Cc1ccc2n[nH]nc2c1` [Benzotriazole- 5-Me], the LC retention time was 5.83 min.

On to `Cln1nnc2ccccc21` [Benzotriazole-chloro], for which the LC retention time is 6.53 min.

`CCON=C(OC(=O)c1ccccc1)c1c(OC)ccc(Cl)c1OC` [Benzoximate]: the LC retention time was 11.3 min.

As to `CCCCCCCCCCCC[N+](CCO)(CCO)Cc1ccccc1` [Benzoxonium], the LC retention time was 11.3 min.

Take `CN1C2CCC1C(C(=O)O)C(OC(=O)c1ccccc1)C2` (centres undefined) [Benzoylecgonine]: the LC retention time is 4.68 min.

Consider `CCOC(=O)C(C)N(C(=O)c1ccccc1)c1ccc(Cl)c(Cl)c1` (centres undefined) [Benzoylprop-ethyl], for which the LC retention time was 11 min.

In the case of `NS(=O)(=O)c1cc2c(cc1Cl)NC(CSCc1ccccc1)=NS2(=O)=O` [Benzthiazide], the LC retention time is 6.81 min.

Consider `CNC(=O)Nc1nc2ccccc2s1` [Benzthiazuron], for which the LC retention time was 7.13 min.

Take `CCCCCCCCCCCCCCCC[N+](C)(C)Cc1ccccc1` [Benzyldimethylhexadecylammonium]: the LC retention time was 13.1 min.

As to `CCCCCCCCCCCCCC[N+](C)(C)Cc1ccccc1` [Benzyldimethyltetradecylammonium], the LC retention time is 12.2 min.

Turning to `c1ccc(CN2CCNCC2)cc1` [Benzylpiperazine], the LC retention time was 4.23 min.

Turning to `O=C1OCC(O)=C1Cc1ccccc1` [Benzyltetronic acid (2-)], the LC retention time was 5.06 min.

As for `CC(=O)OCC(=O)C1(O)C(C)CC2C3CCC4=CC(=O)C=CC4(C)C3(F)C(O)CC21C` (centres undefined) [Betamethasone acetate], the LC retention time was 9.37 min.

Take `CCC(=O)OCC(=O)C1(OC(=O)CC)C(C)CC2C3CCC4=CC(=O)C=CC4(C)C3(F)C(O)CC21C` (centres undefined) [Betamethasone dipropionate]: the LC retention time was 11.3 min.

With `CCCCC(=O)OC1(C(=O)CO)C(C)CC2C3CCC4=CC(=O)C=CC4(C)C3(F)C(O)CC21C` (centres undefined) [Betamethasone-17-valerate], the LC retention time was 11 min.

With `CC(C)NCC(O)COc1ccc(CCOCC2CC2)cc1` (centres undefined) [Betaxolol], the LC retention time is 6.68 min.

As for `CN=C(NC)NCc1ccccc1` [Bethanidine], the LC retention time is 3.97 min.

With `C=C(c1ccc(C(=O)O)cc1)c1cc2c(cc1C)C(C)(C)CCC2(C)C` [Bexarotene], the LC retention time is 14.1 min.

As for `CC(C)(Oc1ccc(CCNC(=O)c2ccc(Cl)cc2)cc1)C(=O)O` [Bezafibrate], the LC retention time is 8.77 min.

With `CC(O)(CS(=O)(=O)c1ccc(F)cc1)C(=O)Nc1ccc(C#N)c(C(F)(F)F)c1` (centres undefined) [Bicalutamide], the LC retention time is 8.71 min.

On to `COc1ccc(-c2ccccc2)cc1NNC(=O)OC(C)C` [Bifenazate], for which the LC retention time was 9.87 min.

In the case of `O=C(O)c1cc(Oc2ccc(Cl)cc2Cl)ccc1[N+](=O)[O-]` [Bifenox acid], the LC retention time was 8.71 min.

With `COC(=O)c1cc(Oc2ccc(Cl)cc2Cl)ccc1[N+](=O)[O-]` [Bifenox], the LC retention time is 11.5 min.

Take `Cc1c(COC(=O)C2C(C=C(Cl)C(F)(F)F)C2(C)C)cccc1-c1ccccc1` (centres undefined) [Bifenthrin]: the LC retention time is 14.1 min.

For `CC(C)=CC1C(C(=O)OCc2coc(Cc3ccccc3)c2)C1(C)C` (centres undefined) [Bioresmethrin], the LC retention time was 13.6 min.

In the case of `O=C(O)CCCCC1SCC2NC(=O)NC21` (centres undefined) [Biotin], the LC retention time is 4.44 min.

For the molecule `OC(CCN1CCCCC1)(c1ccccc1)C1CC2C=CC1C2` (centres undefined) [Biperidene], the LC retention time was 7.63 min.

For `CC(=O)Oc1ccc(C(c2ccc(OC(C)=O)cc2)c2ccccn2)cc1` [Bisacodyl], the LC retention time is 8.92 min.

Consider `CC(C)(c1ccc(OCC2CO2)cc1)c1ccc(OCC2CO2)cc1` (centres undefined) [Bisphenol A diglycidyl ether], for which the LC retention time is 10.8 min.

Turning to `O=S(=O)(c1ccc(O)cc1)c1ccc(O)cc1` [Bisphenol S], the LC retention time was 5.35 min.

Consider `CC(C)(c1ccc(OCC(O)CO)cc1)c1ccc(OCC2CO2)cc1` (centres undefined) [Bisphenol<U+00A0>A (2,3-dihydroxypropyl) glycidyl ether], for which the LC retention time was 9.52 min.

Take `CC(C)(c1ccc(OCC(O)CCl)cc1)c1ccc(OCC2CO2)cc1` (centres undefined) [Bisphenol<U+00A0>A (3-chloro-2-hydroxypropyl) glycidyl ether]: the LC retention time was 11.1 min.

Consider `CC(C)(c1ccc(OCC(O)CCl)cc1)c1ccc(OCC(O)CCl)cc1` (centres undefined) [Bisphenol<U+00A0>A bis(3-chloro-2-hydroxypropyl) ether], for which the LC retention time was 11.4 min.

For `COc1cc(OC)nc(Oc2cccc(Oc3nc(OC)cc(OC)n3)c2C(=O)O)n1` [Bispyribac], the LC retention time is 8.86 min.

Consider `CC(C)(C)C(O)C(Oc1ccc(-c2ccccc2)cc1)n1cncn1` (centres undefined) [Bitertanol], for which the LC retention time is 11.3 min.
